Test results published in patent US9902711B2, “Piperidine compounds having multimodal activity against pain” (LABORATORIOS DEL DR. ESTEVE S.A., priority 2013, dated 2018).

Tested on: human σ1 receptor and human μ-opioid receptor
Assay: Human σ1 receptor radioligand assay and human μ-opioid receptor radioligand assay (results reported only as combined μ and σ1 dual binding)
Parameters: key to μ and σ1 dual binding: +: Both Ki-μ and Ki-σ1>=500 nM; ++: One Ki<500 nM while the other Ki is >=500 nM; +++: Both Ki-μ and Ki-σ1<500 nM; ++++: Both Ki-μ and Ki-σ1<100 nM
Settings: Ki at human σ1 receptor (HEK-293 membranes, [3H](+)-pentazocine) and human μ-opioid receptor (CHO-K1 membranes, [3H]-DAMGO), one combined class
Experimental: To investigate binding properties of σ1 receptor ligands to human σ1 receptor, transfected HEK-293 membranes and [^3H](+)-pentazocine (Perkin Elmer, NET-1056), as the radioligand, were used. The assay was carried out with 7 μg of membrane suspension, 5 nM of [^3H](+)-pentazocine in either absence or presence of either buffer or 10 μM Haloperidol for total and non-specific binding, respectively. Binding buffer contained Tris-HCl 50 mM at pH 8. Plates were incubated at 37° C. for 120 minutes. After the incubation period, the reaction mix was then transferred to MultiScreen HTS, FC plates (Millipore), filtered and plates were washed 3 times with ice-cold 10 mM Tris-HCL (pH7.4). Filters were dried and counted at approximately 40% efficiency in a MicroBeta scintillation counter (Perkin-Elmer) using EcoScint liquid scintillation cocktail
To investigate binding properties of μ-opioid receptor ligands to human μ-opioid receptor, transfected CHO-K1 cell membranes and [^3H]-DAMGO (Perkin Elmer, ES-542-C), as the radioligand, were used. The assay was carried out with 20 μg of membrane suspension, 1 nM of [^3H]-DAMGO in either absence or presence of either buffer or 10 μM Naloxone for total and non-specific binding, respectively. Binding buffer contained Tris-HCl 50 mM, MgCl2 5 mM at pH 7.4. Plates were incubated at 27° C. for 60 minutes. After the incubation period, the reaction mix was then transferred to MultiScreen HTS, FC plates (Millipore), filtered and plates were washed 3 times with ice-cold 10 mM Tris-HCL (pH 7.4). Filters were dried and counted at approximately 40% efficiency in a MicroBeta scintillation counter (Perkin-Elmer) using EcoScint liquid scintillation cocktail.

SMILES | μ and σ1 dual binding | Ki [µM]
CC(=O)Oc1cccc(C2CCN(Cc3cn(Cc4ccccn4)nn3)CC2)c1 [Example 3, 3-(1-((1-(pyridin-2-ylmethyl)-1H-1,2,3-triazol-4-yl)methyl)piperidin-4-yl)phenyl acetate] | ++ | 
COc1cccc(C2CCN(Cc3cn(-c4ccccc4)nn3)CC2)c1 [Example 7, 4-(3-methoxyphenyl)-1-((1-phenyl-1H-1,2,3-triazol-4-yl)methyl)piperidine] |  | < 0.5
N[C@@H](Cc1ccccc1)C(=O)Oc1cccc(C2CCN(Cc3cn(Cc4ccccn4)nn3)CC2)c1 [Example 19, (S)-3-(1-((1-(pyridin-2-ylmethyl)-1H-1,2,3-triazol-4-yl)methyl)piperidin-4-yl)phenyl 2-amino-3-phenylpropanoate] |  | < 0.5
O=C(Nc1ccc(C(=O)O)cc1)Oc1cccc(C2CCN(Cc3cn(Cc4ccccn4)nn3)CC2)c1 [Example 4] |  | < 0.5
CN(C)C(=O)Oc1cccc(C2CCN(Cc3cn(-c4ccccc4)nn3)CC2)c1 [Example 8, 3-(1-((1-phenyl-1H-1,2,3-triazol-4-yl)methyl)piperidin-4-yl)phenyl dimethylcarbamate] |  | < 0.5
COc1cccc(C2CCN(Cc3cn(Cc4ccccn4)nn3)CC2)c1 [Example 12, 2-((4-((4-(3-methoxyphenyl)piperidin-1-yl)methyl)-1H-1,2,3-triazol-1-yl)methyl)pyridine] | ++ | 
CC(C)C(=O)Oc1cccc(C2CCN(Cc3cn(Cc4ccccn4)nn3)CC2)c1 [Example 5, 3-(1-((1-(pyridin-2-ylmethyl)-1H-1,2,3-triazol-4-yl)methyl)piperidin-4-yl)phenyl isobutyrate] |  | < 0.5
COc1cccc(C2CCN(Cc3cn(Cc4ccc(F)cn4)nn3)CC2)c1 [Example 16, 5-fluoro-2-((4-((4-(3-methoxyphenyl)piperidin-1-yl)methyl)-1H-1,2,3-triazol-1-yl)methyl)pyridine] | ++ | 
COCCCOc1cccc(C2CCN(Cc3cn(-c4ccccc4)nn3)CC2)c1 [Example 11, 4-(3-(3-methoxypropoxy)phenyl)-1-((1-phenyl-1H-1,2,3-triazol-4-yl)methyl)piperidine] |  | < 0.5
CC(C)[C@H](NC(=O)Oc1cccc(C2CCN(Cc3cn(Cc4ccccn4)nn3)CC2)c1)C(=O)O [Example 13] |  | ≥ 0.5
CCNC(=O)Oc1cccc(C2CCN(Cc3cn(-c4ccccc4)nn3)CC2)c1 [Example 1, 3-(1-((1-phenyl-1H-1,2,3-triazol-4-yl)methyl)piperidin-4-yl)phenyl ethylcarbamate] |  | < 0.5
NC1(C(=O)Oc2cccc(C3CCN(Cc4cn(Cc5ccccn5)nn4)CC3)c2)CCCCC1 [Example 20, 3-(1-((1-(pyridin-2-ylmethyl)-1H-1,2,3-triazol-4-yl)methyl)piperidin-4-yl)phenyl 1-aminocyclohexanecarboxylate] |  | ≥ 0.5
COc1cccc(C2CCN(Cc3cn(C(CO)c4ccccc4)nn3)CC2)c1 (centres unmarked) [Example 17, 2-(4-((4-(3-methoxyphenyl)piperidin-1-yl)methyl)-1H-1,2,3-triazol-1-yl)-2-phenylethanol] | ++ | 
COc1cccc(C2CCN(Cc3cn(Cc4ncccc4F)nn3)CC2)c1 [Example 15, 3-fluoro-2-((4-((4-(3-methoxyphenyl)piperidin-1-yl)methyl)-1H-1,2,3-triazol-1-yl)methyl)pyridine] | ++ | 
COc1cccc(C2CCN(Cc3cn(-c4ccc(F)cc4)nn3)CC2)c1 [Example 2, 1-((1-(4-fluorophenyl)-1H-1,2,3-triazol-4-yl)methyl)-4-(3-methoxyphenyl)piperidine] | ++ | 
CC(=O)Oc1cccc(C2CCN(Cc3cn(-c4ccccc4)nn3)CC2)c1 [Example 9, 3-(1-((1-phenyl-1H-1,2,3-triazol-4-yl)methyl)piperidin-4-yl)phenyl acetate] |  | < 0.1
CC(C)[C@H](N)C(=O)Oc1cccc(C2CCN(Cc3cn(Cc4ccccn4)nn3)CC2)c1 [Example 6, (S)-3-(1-((1-(pyridin-2-ylmethyl)-1H-1,2,3-triazol-4-yl)methyl)piperidin-4-yl)phenyl 2-amino-3-methylbutanoate] |  | < 0.5
O=C(O)CNC(=O)Oc1cccc(C2CCN(Cc3cn(Cc4ccccn4)nn3)CC2)c1 [Example 14] |  | ≥ 0.5
O=C(Oc1cccc(C2CCN(Cc3cn(Cc4ccccn4)nn3)CC2)c1)[C@@H]1CCCN1 [Example 18, (S)-3-(1-((1-(pyridin-2-ylmethyl)-1H-1,2,3-triazol-4-yl)methyl)piperidin-4-yl)phenyl pyrrolidine-2-carboxylate] |  | < 0.5
COCCOc1cccc(C2CCN(Cc3cn(-c4ccccc4)nn3)CC2)c1 [Example 10, 4-(3-(2-methoxyethoxy)phenyl)-1-((1-phenyl-1H-1,2,3-triazol-4-yl)methyl)piperidine] |  | < 0.5
